The values that follow come from patent publication US8288419B2, “Aminopyrazole derivatives” (Actelion Pharmaceuticals, Ltd, priority 2007, dated 2012).

The target in this assay is T1, recombinant human ALX receptor (Homo sapiens, UniProt P25090).
T1 construct: expressed in transfected cells; host or cells: HEK293 (HEK293-hALXR-Gα16)
T1 sequence (P25090 1-351): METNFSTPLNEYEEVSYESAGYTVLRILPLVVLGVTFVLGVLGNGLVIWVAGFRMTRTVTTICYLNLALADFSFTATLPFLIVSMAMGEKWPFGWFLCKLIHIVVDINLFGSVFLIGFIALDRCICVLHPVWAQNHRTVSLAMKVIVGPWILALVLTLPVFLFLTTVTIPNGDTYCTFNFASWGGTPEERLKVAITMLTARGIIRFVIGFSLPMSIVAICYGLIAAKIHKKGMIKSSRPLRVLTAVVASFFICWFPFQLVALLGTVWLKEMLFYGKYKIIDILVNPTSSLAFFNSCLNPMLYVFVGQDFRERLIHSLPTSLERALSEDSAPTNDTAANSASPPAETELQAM
The assay is described as follows: Intracellular calcium measurements (FLIPR), ALX receptor agonistic activity. It counts as cell-based. To be noted: HEK293-hALXR-Gα16 cells, Fluo-4 calcium fluorescence, normalized to 10 nM WKYMVm. The protocol:
The ALX receptor agonistic activity of the compounds of formula (I) is determined in accordance with the following experimental method.
Intracellular Calcium Measurements:
Cells expressing recombinant human ALX receptor and the G-protein Gα16 (HEK293-hALXR-Gα16) were grown to 80% confluency in Growing Medium (GM). […] Stock solutions of test compounds were made up at a concentration of 10 mM in DMSO, and serially diluted in AB to concentrations required for activation dose response curves. WKYMVm (Phoenix Peptides) was used as a reference agonist. A FLIPR384 instrument (Molecular Devices) was operated according to the manufacturer's standard instructions, adding 4 μl of test compound dissolved at 10 mM in DMSO and diluted prior to the experiment in assay buffer to obtain the desired final concentration. Changes in fluorescence were monitored before and after the addition of test compounds at lex=488 nm and lem=540 nm. Emission peak values above base level after compounds addition were exported after base line subtraction. Values were normalized to high-level control (WKYMVm compound, 10 nM final concentration) after subtraction of the base line value (AB addition). The program XLlfit 3.0 (IDBS) was used to fit the data to a single site dose response curve of the equation (A+((B−A)/(1+((C/x)^D)))) and to calculate the EC50 values.
Background: A change in cytosolic calcium serves as a functional read-out for many receptors and channels.
For the compound `CC(=O)c1ccc(Cn2ccc(NC(=O)c3ncoc3-c3cccc(C(=O)OC(C)(C)C)c3)n2)o1` [Example 381, 3-{4-[1-(5-Acetyl-furan-2-ylmethyl)-1H-pyrazol-3-ylcarbamoyl]-oxazol-5-yl}-benzoic acid tert-butyl ester], the half-maximal effective concentration (EC50) amounted to 35 nM.

Regarding `CC(=O)c1cc(Cn2cc(NC(=O)c3ncoc3-c3ccccc3)cn2)cs1` [Example 408, 5-Phenyl-oxazole-4-carboxylic acid [1-(5-acetyl-thiophen-3-ylmethyl)-1H-pyrazol-4-yl]-amide], the EC50 amounted to 83 nM.

On to `CC(=O)c1ccc(Cn2ccc(NC(=O)c3nc(C)oc3-c3cccc(-c4ccccc4)c3)n2)o1` [Example 354, 5-Biphenyl-3-yl-2-methyl-oxazole-4-carboxylic acid [1-(5-acetyl-furan-2-ylmethyl)-1H-pyrazol-3-yl]-amide], for which the concentration giving a half-maximal response (EC50) turned out to be 60 nM.

In the case of `CC(=O)CCCCn1cc(NC(=O)/C=C/c2ccccc2Cl)cn1` [Example 157, (E)-3-(2-Chloro-phenyl)-N-[1-(5-oxo-hexyl)-1H-pyrazol-4-yl]-acrylamide], the EC50 was 330 nM.

With `CC(=O)c1ccc(Cn2cc(NC(=O)c3ncoc3-c3ccno3)cn2)o1` [Example 420, 5-Isoxazol-5-yl-oxazole-4-carboxylic acid [1-(5-acetyl-furan-2-ylmethyl)-1H-pyrazol-4-yl]-amide], the EC50 is 388 nM.

Take `CC(F)(F)CCCCn1cc(NC(=O)OCc2ccccc2Cl)cn1` [Example 203, [1-(5,5-Difluoro-hexyl)-1H-pyrazol-4-yl]-carbamic acid 2-chloro-benzyl ester]: the half-maximal effective concentration (EC50) stood at 28 nM.

Consider `CC(=O)c1cc(Cn2cc(NC(=O)OCc3ccccc3Cl)cn2)ccn1` [Example 407, [1-(2-Acetyl-pyridin-4-ylmethyl)-1H-pyrazol-4-yl]-carbamic acid 2-chloro-benzyl ester], for which the EC50 was found to be 58 nM.

As for `CC(=O)c1ccc(Cn2ccc(NC(=O)OCc3cc(F)c(F)cc3F)n2)o1` [Example 24, [1-(5-Acetyl-furan-2-ylmethyl)-1H-pyrazol-3-yl]-carbamic acid 2,4,5-trifluoro-benzyl ester], the EC50 came to 33 nM.

With `CC(=O)c1ccc(Cn2cc(NC(=O)c3ncoc3-c3cccc(C#N)c3)cn2)s1` [Example 397, 5-(3-Cyano-phenyl)-oxazole-4-carboxylic acid [1-(5-acetyl-thiophen-2-ylmethyl)-1H-pyrazol-4-yl]-amide], the EC50 amounted to 23 nM.

As to `CC(=O)c1cnc(Cn2ccc(NC(=O)c3ncoc3-c3ccccc3)n2)o1` [Example 465, 5-Phenyl-oxazole-4-carboxylic acid [1-(5-acetyl-oxazol-2-ylmethyl)-1H-pyrazol-3-yl]-amide], the EC50 turned out to be 73 nM.

On to `CC(=O)c1ccc(Cn2cc(NC(=O)c3ncoc3-c3ccnc(F)c3)cn2)o1` [Example 412, 5-(2-Fluoro-pyridin-4-yl)-oxazole-4-carboxylic acid [1-(5-acetyl-furan-2-ylmethyl)-1H-pyrazol-4-yl]-amide], for which the half-maximal effective concentration (EC50) turned out to be 179 nM.

As for `CC(=O)c1csc(Cn2cc(NC(=O)/C=C/c3ccc(C(F)(F)F)cc3)cn2)n1` [Example 389, (E)-N-[1-(4-Acetyl-thiazol-2-ylmethyl)-1H-pyrazol-4-yl]-3-(4-trifluoromethyl-phenyl)-acrylamide], the half-maximal effective concentration (EC50) came out at 79 nM.

`CC(=O)CCCCn1cc(NC(=O)OCc2nc3ccccc3s2)cn1` [Example 462, [1-(5-Oxo-hexyl)-1H-pyrazol-4-yl]-carbamic acid benzothiazol-2-ylmethyl ester]: the EC50 came to 43 nM.

Regarding `CC(=O)c1ccc(Cn2ccc(NC(=O)c3ncoc3-c3ccccc3)n2)s1` [Example 376, 5-Phenyl-oxazole-4-carboxylic acid [1-(5-acetyl-thiophen-2-ylmethyl)-1H-pyrazol-3-yl]-amide], the EC50 was 74 nM.

One may read the EC50 as the midpoint of the concentration-response curve.
